Reference: patent US5693608A, “Method of administering a biologically active substance” (Bechgaard International Research and Development A/S, priority 1990, dated 1997)
“Also recorded” adds a separate entry of the source.

Key:
[1] = intranasal, adults; cited from earlier work
blood glucose level [2] = assay: Blood glucose after intranasal glucagon in hypoglycaemic rabbits (Example 5); format: in vivo, New Zealand White rabbits
Method: 4 mg human glucagon in 100 μl phosphate buffer (pH 4) containing 5% GF was applied into both nostrils (50 μl into each) of 5 sitting hypoglycaemic New Zealand White rabbits, weighing about 3 kg. The formulation was prepared by dissolving glucagon in a 7 mM phosphate buffer (pH 2.5), adjusting the pH to 4.0 with 0.1N sodium hydroxide and finally 5% glycofurolum 75 was added. The rabbits were made hypoglycaemic by subcutaneous injection of […] insulin one hour prior to the experiment. Blood samples were continuously withdrawn from the marginal ear vein for blood glucose determination.

children = settings: intranasal, 45 children; cited from earlier work
[3] = nasal gel, rats; cited from earlier work
[4] = Volume of aqueous solution needed to dissolve clinically relevant dose; format: physicochemical
rabbits = assay: Pharmacodynamic response, enhanced by GF (Example 3); settings: intranasal 0.25 mg clonazepam in 100 μl
Method: The pharmacodynamic response was tested in New Zealand White rabbits after application of 50 μl of 2.5 mg clonazepam/ml vehicle into each nostril while they were in sitting position. […] Clonazepam was dissolved by ultrasonification.

[5] = Plasma clonazepam after intranasal administration in vehicle B (Example 2); format: in vivo, New Zealand White rabbits
Method: 50 μl of his preparation was administered into each nasal cavity of male New Zealand White rabbits, held in a supine position during and 1 minute after the application. An Eppendorph pipette was used for the application.

blood glucose level [6] = assay: Blood glucose after intranasal insulin (Example 4); format: in vivo, New Zealand White rabbits; settings: rabbits
Method: 0.33 mg zinc-free (monomeric) human insulin in 50 μl 12.5 mM phosphate buffer (pH 7.4) containing 5% glycofurol 75 was applied into one nostril of 5 sitting New Zealand White rabbits, weighing about 3 kg. Blood samples of 50 μl were withdrawn from the marginal ear vein after 0, 15, 30, 60 and 120 minutes, and blood glucose level was determined.

rabbit nasal cavity = assay: Acute toxicological study, rabbit nasal cavity 10 minutes after intranasal application; format: in vivo; settings: for Microscopic Observations (Left Cavity): Table 8, individual rabbit
Method: This study was conducted in order to observe acute changes in the rabbit nasal cavity after a single dose of vehicle in each nasal cavity.
16 rabbits were randomized into 4 groups of 4 rabbits each. 3 groups received a single intranasal application of one of the test vehicles, 50 μl into each nasal cavity. Each rabbit received only one test compound. One group served as a control receiving the same volume of isotonic sodium chloride saline. 10 minutes after application the rabbits were sacrificed and bled. The right nasal cavity was then opened and evaluated macroscopically. The evaluator was blind as to the dosing scheme. The left nasal cavity was dissected and fixed in neutral buffered formalin for histological evaluation.

For CN1C(=O)CN=C(c2ccccc2)c2cc(Cl)ccc21 [diazepam], the “peak concentration with reference to i.v. administration” value [1] is listed as “about 27%”.

With “glucagon: human glucagon in phosphate buffer (pH 4) containing 5% GF” the “pronounced biological response (blood glucose), time after application” value (blood glucose level [2]) was 15-30 minutes.

In the case of Cc1ncc2n1-c1ccc(Cl)cc1C(c1ccccc1F)=NC2 [midazolam], the “adverse reaction (in words)” value (children) is given as “coughing and sneezing with expulsion of part of the dose”.

In the case of COC(=O)C1=C(C)NC(C)=C(C(=O)OC)C1c1ccccc1[N+](=O)[O-] [nifedipine], the “plasma peak concentration compared with intravenous administration” value [3] is listed as ≤ 10%.

For O=C1Nc2ccc(Cl)cc2C(c2ccccc2Cl)=NC1O (stereo not shown) [lorazepam], the “time to peak concentration” value [1] is listed as 2.3 h.

In the case of O=C1CN=C(c2ccccc2Cl)c2cc([N+](=O)[O-])ccc2N1 [clonazepam], the “volume of aqueous solution to dissolve clinically relevant dose” value [4] is reported as > 10 mL, the “time to pharmacodynamic response” value (rabbits) is reported as “less than 2 minutes” and the “plasma concentration versus i.v. injection (in words)” value ([5]; 0.5 mg, at about 2 minutes) is reported as “about the same or even higher, at about 2 minutes, than for an i.v. injection”. For the same compound, the “plasma concentration after 2 1/2 minutes, % of i.v. (CpL(21/2 min))” value ([5]; FIG. 1) was “about 100%” and the Tmax ([5]; rabbit, plasma, 0.5 mg, FIG. 1, read-out: peak clonazepam plasma concentration (tmax)) was 2 to 3 min.

In the case of “insulin: zinc-free (monomeric) human insulin in phosphate buffer (pH 7.4) containing 5% glycofurol 75”, the “pronounced biological response (blood glucose), time after application” value (blood glucose level [6]) is reported as 15-30 minutes.

For CC(O)CO (stereo not shown) [Propylene glycol (PG), propylene glycol], the “Microscopic Observations (Left Cavity)” value (rabbit nasal cavity; Level 1) was “Edema and congestion”, the “Microscopic Observations (Left Cavity)” value (rabbit nasal cavity; Level 2) was “Congestion” and the “Microscopic Observations (Left Cavity)” value (rabbit nasal cavity; Level 3) was “Lymphoid aggregates; also recorded: Dilatation of venules”. For the same compound, the “Microscopic Observations (Left Cavity)” value (rabbit nasal cavity; Level 4) was “Area of chronic inflammation” and the “Microscopic Results (Left side)” value (rabbit nasal cavity; Table 9 summary, 10 minutes after application, per animal) was “Focal haemorrhage”.
